# Patent US6280760A, “Peptide-coated implants and methods for producing same” (Merck Patent Gesellschaft mit beschraenkter Haftung, priority 1997, dated 2001)
# Key:
# MC3T3 H1 osteoblasts [1] = assay: Adhesion of MC3T3 H1 osteoblasts to PMMA moulded articles coated with acrylate RGD peptides; format: cell-based, mouse
# Experimental: For the covalent coupling of these peptides to polymerized PMMA (polymethyl methacrylate) surfaces, appropriate shaped articles of differing porosity (diameter: 10 mm; height: 2 mm) were prepared from three different PMMA components.
# Bone cement based on PMMA (Merck KGaA, Germany, Licence No. 5181.00.00) corresponding to the product description (40 g of powder+20 ml of liquid).
# 10 g of PMMA/PHEMA (polyhydroxyethyl methacrylate) granules, particle size 0.5-0.6 mm (Biomet) were mixed with 1.3 ml of an HEMA solution (68.6% HEMA, 29.4% TEGMA [triethylene glycol dimethacrylate], 2% tBPB, [tert-butyl peroxybenzoate]) and adhered by means of this to a porous support material.
# 10 g of PMMA granules (Plex Y7H, Rohm, Germany), particle fraction 0.7-2 mm were mixed with 1.5 ml of a methyl methacrylate (MMA) solution (68.6% MMA, 29.4% TEGMA, 2% tBPB) and adhered by this means to a porous support material.
# For the covalent coupling of the acrylate peptides to the prepolymerized PMMA moulded articles, stock solutions of the acrylate peptides 1, 2, 3 and 4 were prepared in a final concentration of 100 μM in each case in DMSO/0.2% camphorquinone (w/v). Then, by dilution with isopropanol/0.2% camphorquinone (w/v), concentration series having final peptide concentrations of 0.1 nM, 1 nM, 10 nM, 100 nM, 1 μM and 10 μM in each case were prepared. The moulded articles were incubated in daylight and at room temperature for 2 hours and then stored at 4° C. in the dry state. Before use, the samples were washed with PBS, pH 7.4, to remove unbound peptides and stored at 4° C. in PBS, pH 7.4, overnight.
# By addition of 250 μl/moulded article each of a 5% strength BSA solution in PBS, pH 7.4, and subsequent incubation for 2 hours at room temperature and washing once with PBS, pH 7.4, non-specific cell-binding sites were blocked.
# Subsequently, the adhesion of osteoblasts of the MC3T3 H1 line, obtained from the calvaria of neonatal mice (Heermeier et al., 1995, Cells and Materials 5: 309-321) to the above-described peptide-coated surfaces was investigated.
# The MC3T3 H1 osteoblasts were inoculated at an inoculation density of 48,000 cells/cm^2, as described above, in Costar 48-well plates, with PMMA moulded articles coated with RGD peptide and then incubated for 1 hour at 37° C., 95% atmospheric humidity and 5% CO2. Cells non-adhered during the experiment were then washed off twice with PBS, pH 7.4.
# (§1) The quantification of the adhered cells was carried out indirectly via the activity determination of the cellular enzyme N-acetylhexosaminidase using an appropriate standard curve according to the method of Landegren (1984, J. Immunol. Methods, 67: 379-388).
# osteoblast cell cultures = assay: Inhibition of osteoblast binding to thiolpeptide 1-coated surfaces by dissolved cyclic RGDfK in the adhesion medium; format: cell-based, mouse, human, rat; conditions: dissolved peptide in the adhesion medium; coating 10 μM; FIG. 4
# Experimental: FIG. 4: Adhesion of osteoblasts to test surfaces coated with thiolpeptide 1-SMPP derivative (10 μM in the coating solution) (see FIG. 2)
# x axis: Concentration of dissolved cyclo-RGDfK (without molecular anchor) in the adhesion medium (μM),
# To do this, 48-well plates (Costar, "non-tissue culture treated", Art. No. 3547) were each coated with 250 μl of PBS (phosphate-buffered saline), pH=8.3, 2% BSA, per well and incubated overnight at room temperature in order to generate a BSA layer on the polystyrene. The plates were then washed with 250 μl of PBS, pH=8.3, per well and incubated at room temperature for 1 hour with 250 μl each of a solution containing 100 μg/ml of SMPB in PBS, pH 8.3. Washing of the wells was then carried out three times using 250 μl of PBS, pH 8.3, each time. For the preparation of the coating solutions, the appropriate thiol-RGD peptide was prepared in the following final concentrations in PBS, pH 8.3: 1 nM, 10 nM, 100 nM, 1 μM, 10 μM, 100 μM and 1 mM. After addition of 250 μl each of coating solution/well, the plates were incubated at room temperature overnight and then washed three times with PBS, pH 8.3. […]
# as §1
# MC3T3 H1 osteoblasts [2] = assay: Adhesion of MC3T3 H1 osteoblasts to BSA-pretreated polystyrene surfaces coated with thiol-RGD peptides via sulpho-SMPB; format: cell-based, mouse; conditions: BSA-pretreated polystyrene, peptide coupled via sulpho-SMPB; FIG. 2
# Experimental: The covalent coupling of the peptides according to the invention with sulphosuccinimidyl 4-(p-maleimidophenyl)butyrate (sulpho-SMPB) to culture surfaces of polystyrene precoated with bovine serum albumin (BSA) was accomplished following the established processes of Singer et al., 1987, J. Cell. Biol. 104: 573, or of Ruoslahti et al. (1982, Methods. Enzymol., 82: 803-831).
# To do this, 48-well plates (Costar, "non-tissue culture treated", Art. No. 3547) were each coated with 250 μl of PBS (phosphate-buffered saline), pH=8.3, 2% BSA, per well and incubated overnight at room temperature in order to generate a BSA layer on the polystyrene. The plates were then washed with 250 μl of PBS, pH=8.3, per well and incubated at room temperature for 1 hour with 250 μl each of a solution containing 100 μg/ml of SMPB in PBS, pH 8.3. Washing of the wells was then carried out three times using 250 μl of PBS, pH 8.3, each time. For the preparation of the coating solutions, the appropriate thiol-RGD peptide was prepared in the following final concentrations in PBS, pH 8.3: 1 nM, 10 nM, 100 nM, 1 μM, 10 μM, 100 μM and 1 mM. After addition of 250 μl each of coating solution/well, the plates were incubated at room temperature overnight and then washed three times with PBS, pH 8.3. By addition of 250 μl each of a 5% strength BSA solution in PBS, pH 7.4, subsequent incubation for 2 hours at room temperature and washing with PBS, pH 7.4, non-specific cell-binding sites were blocked. Polystyrene surfaces, which from the coating were treated with a 5% strength BSA solution identically to the positive samples, functioned as negative coating controls. The adhesion of four cell cultures which were obtained from three different species was then investigated on the abovementioned surfaces coated with RGD peptide:
# osteoblast cell line MC3T3 H1, obtained from the calvaria of neonatal mice (Heermeier et al., 1995, Cells and Materials, 5: 309-321), and
# The cell species described were inoculated with an inoculation density of 48,000 cells/cm^2 into, as described above, Costar-48 well plates coated with RGD peptide, and then incubated for 1 hour at 37° C., 95% atmospheric humidity and 5% CO2. Cells unadhered during the experiment were then washed off twice with PBS, pH 7.4.
# as §1
# [3] = tested on: osteoblasts/platelets mixture; assay: Adhesion of an osteoblast/platelet mixture to PMMA bone cement shaped articles coated with cell-selective acrylate peptides; format: cell-based, mouse, human; conditions: second part experiment; 100 μM peptide in the coating solution
# Experimental: (§2) b. In the second part experiment, PMMA shaped articles were likewise coated with the acrylate peptides 3 and 5, but only in a concentration in the coating solution of 100 μM in each case. These RGD peptide-coated materials were then inoculated in parallel with osteoblasts, platelets or an osteoblast/platelet mixture and their cell adhesion was determined. MC3T3 H1 osteoblasts (350,000 cells/cm^2), human platelets (50 million cell/cm^2) and a cell mixture (350,000 osteoblasts/cm^2 […] 50 million platelets/cm^2) were in each case inoculated in parallel both onto acrylate peptide 3- and acrylate peptide 5-coated PMMA shaped articles and their cell adhesion was determined as described in Example 3.
# MC3T3 H1 osteoblasts [4] = assay: Adhesion of MC3T3 H1 osteoblasts to PMMA bone cement shaped articles coated with cell-selective acrylate peptides; format: cell-based, mouse; conditions: for cell adhesion, calculated Abs (405 nm), osteoblasts: first part experiment
# Excerpt: (§3) The model used for material coating with RGD peptides of different cell selectivity to obtain implants having locally differentiated bioactive coating patterns which should stimulate the adhesion of different cell species was polymerized PMMA bone cement shaped articles. To these were covalently coupled two RGD peptides of different cell selectivity. In this case acrylate peptide 3, type iiia, having a selectivity for alphav beta3 -/alphav beta5 -integrin-bearing osteoblasts, and acrylate peptide 5, type iiia, having a selectivity for […] -positive platelets were bonded to the PMMA shaped articles as described for Example 3.
# (§4) a. In the first part experiment, PMMA shaped articles were coated with the acrylate peptides 3 and 5 in concentrations in the coating solution of 100 μM, 10 μM and 1 μM in each case. These RGD peptide-coated materials were then inoculated in parallel with osteoblasts and platelets and their cell adhesion was determined.
# (§5) MC3T3 H1 osteoblasts (350,000 cells/cm^2) and human platelets (50 million cells/cm^2) were in each case inoculated in parallel both onto acrylate peptide 3- and acrylate peptide 5-coated PMMA shaped articles and their cell adhesion was determined as described in Example 3.
# as §2
# human platelets = assay: Adhesion of human platelets to PMMA bone cement shaped articles coated with cell-selective acrylate peptides; format: cell-based; conditions: for cell adhesion, calculated Abs (405 nm), platelets: first part experiment
# Excerpt: as §3, §4, §5
# Human platelets were prepared following the process of Shattil and Brass (J. Biol. Chem. 262:992-1000, 1987).
# as §2
# [5] = 1 μM peptide in the coating solution
# [6] = 10 μM peptide in the coating solution
# [7] = 100 μM peptide in the coating solution
# [8] = second part experiment, 100 μM peptide in the coating solution
compound,measurement,setting,value
cyclo(RGDf[acrylic-ahx-ahx-K]) [acrylate peptide 2],cell adsorption rates increased in comparison with uncoated surfaces,"MC3T3 H1 osteoblasts [1]; bone cement shaped articles, FIG. 8",5-15 fold
same,maximal adsorption rates,"MC3T3 H1 osteoblasts [1]; different PMMA moulded articles, 48,000 cells/cm^2, 1 hour",80-100%
same,EC50,"MC3T3 H1 osteoblasts [1]; different PMMA moulded articles, read-out: half-maximal cell bindings, RGD peptide concentration in the coating solution",0.001 to 10 µM
same,cell adsorption rates increased in comparison with uncoated surfaces,"MC3T3 H1 osteoblasts [1]; porous PMMA/PHEMA granule shaped articles, FIG. 9",2-5 fold
same,cell adsorption rates increased in comparison with uncoated surfaces,"MC3T3 H1 osteoblasts [1]; porous Plex Y7H granule shaped articles, FIG. 10",2-3 fold
"N=C(N)NCCC[C@@H]1NC(=O)[C@H](CCCCN)NC(=O)[C@@H](Cc2ccccc2)NC(=O)[C@H](CC(=O)O)NC(=O)CNC1=O [cyclic RGDfK, cyclo-RGDfK (Arg-Gly-Asp-DPhe-Lysine)]",inhibition of osteoblast binding to thiolpeptide 1-sulpho-SMPB derivative-coated surfaces,osteoblast cell cultures,completely inhibited
"cyclo-RβADfK-NH--CO--CH2 --CH2 --S-- (sulpho-SMPB) [thiolpeptide control, reference compound]",stimulation of the adhesion of cultured mouse MC3T3 H1 osteoblasts,MC3T3 H1 osteoblasts [2],no significant effect
cyclo (RGDf[acrylic-ahx-tEG-KG]) [acrylate peptide 5],"cell adhesion, Abs, osteoblasts/platelets inoculated as a mixture",[3],about 6.5 Abs
same,"cell adhesion, calculated Abs (405 nm), osteoblasts",MC3T3 H1 osteoblasts [4]; [5],about 0.2 Abs
same,"cell adhesion, calculated Abs (405 nm), osteoblasts",MC3T3 H1 osteoblasts [4]; [6],about 1.0 Abs
same,"cell adhesion, calculated Abs (405 nm), osteoblasts",MC3T3 H1 osteoblasts [4]; [7],about 1.5 Abs
same,"cell adhesion, Abs, osteoblasts alone",MC3T3 H1 osteoblasts [4]; [8],about 1.5 Abs
same,"cell adhesion, calculated Abs (405 nm), platelets",human platelets; [5],about 0.2 Abs
same,"cell adhesion, calculated Abs (405 nm), platelets",human platelets; [6],about 0.5 Abs
same,"cell adhesion, calculated Abs (405 nm), platelets",human platelets; [7],about 4.0 Abs
same,"cell adhesion, Abs, platelets alone",human platelets; [8],about 4.0 Abs
